Test results from patent US5648366A, “Substituted pyrrolidin-3-yl-alkyl-piperidines” (Merrell Pharmaceuticals Inc., priority 1995, dated 1997).
Where a name gives a salt, the structure may show the parent alone.

What was measured:
[1] = target: T1, NK1 receptor (Cavia porcellus, UniProt P30547); test: Antagonism of SP-induced plasma protein extravasation in guinea pig trachea; assay type: in vivo; set-up: SP-induced plasma protein extravasation in guinea pig trachea; from tissue; host or cells: living guinea pig; trachea and primary bronchi; settings: i.v.; Example 3 versus Example 20A
T1 sequence (P30547 whole entry): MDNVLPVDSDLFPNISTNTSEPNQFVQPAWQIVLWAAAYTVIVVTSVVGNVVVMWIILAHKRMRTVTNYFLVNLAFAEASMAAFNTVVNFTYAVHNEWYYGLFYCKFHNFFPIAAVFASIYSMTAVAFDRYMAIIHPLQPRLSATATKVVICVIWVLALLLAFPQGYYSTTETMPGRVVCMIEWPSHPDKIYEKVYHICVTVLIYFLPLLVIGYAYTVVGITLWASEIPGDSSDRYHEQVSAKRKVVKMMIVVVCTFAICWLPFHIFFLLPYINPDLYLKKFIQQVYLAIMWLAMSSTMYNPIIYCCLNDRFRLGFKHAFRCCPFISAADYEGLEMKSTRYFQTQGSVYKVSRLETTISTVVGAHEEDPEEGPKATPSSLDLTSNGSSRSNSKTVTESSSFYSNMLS
Description: ANTAGONISM OF SP-INDUCED PLASMA PROTEIN EXTRAVASATION IN GUINEA PIG TRACHEA
SP-induced protein leakage through postcapillary venules was assessed by measuring Evans Blue dye accumulation in guinea pig trachea. Animals were anesthetized with pentobarbital then injected with Evans Blue dye (20 mg/kg, i.v., prepared in 0.9% NaCl solution). One minute after dye administration, the antagonist was administered (i.v.) followed by SP (0.3 nmole/kg, i.v.) and, after 5 min, excess dye removed from the circulation by transcardiac perfusion with 50 ml 0.9% NaCl solution. The trachea and primary bronchi were removed, blotted dry and weighed. Dye quantitation was performed spectrophotometrically ([…]) after extracting tissues in formamide for 24 hr at 50° C. Values were subtracted from background (dye only, no agonist). ED50 (dose of compound which inhibits SP-induced plasma protein extravasation by 50%) was calculated from linear regression analysis.

[2] = tested on: NK2 receptor; test: Antagonism of NKA aerosol induced respiratory effects in conscious guinea pigs; assay type: in vivo, guinea pig; settings: 20 min prior to NKA aerosol (0.05%); for DYSPNEA ONSET: mean and SEM
Description: (§1) ANTAGONISM OF NKA AND CAPSAICIN INDUCED R[…] IN CONSCIOUS GUINEA PIGS
(§2) In vivo experiments were performed using male Duncan Hartley guinea pigs (250-350 g). Changes in conscious breathing patterns were monitored in four animals simultaneously using modified whole body plethysmography consisting of four small plexiglass boxes each connected to a reference box via Validyne DP 45-16 differential pressure transducers. The 4 boxes were equipped with an air supply line (also used for aerosol delivery) and an exhaust air line. Supply and exhaust lines were of the same length and narrow bore and arose from a common supply chamber and vented to a common exhaust chamber. This system was used to ensure that fluctuations in supply air and atmospheric pressure would remain in phase and be eliminated from the net signal by the differential pressure transducers. The analog pressure signals were digitalized via a Data Translation DT2821 A to D board. Data were collected at a rate of 100 samples/second/animal. Each cycle of pressure change was analyzed using the following parameters: rising and falling slope determined between minimum and maximum pressures, the ratio of rising over falling slope, and the magnitude of the change between initial trough pressure and peak cycle pressure. Using these values (and observing the animals) the pressure cycles were characterized into normal breaths, forced exhalations (apparent by abdominal heaving), significant respiratory events (SREs; usually coughs, less often sneezes or gasps which were characterized by transient, extremely large pressure increases which were distinguishable from noise) and movement/noise with a PCAT 286 running a System V UNIX operating system. Dyspnea was defined as a significant, sustained increase in plethysmograph pressure which was associated with an observable shift to labored breathing in the animal.
(§3) During the course of a typical experiment in which airway responsiveness to various bronchoconstricting agents was examined, aerosols were delivered for 19 min (0.33 ml/min) using a DeVilbiss Ultraneb 99 ultrasonic nebulizer and animals monitored during this time. Prior to nebulization, 1 min of resting breathing was collected to establish a baseline pressure. […] The vehicle for nebulization of all bronchoconstrictive agents was phosphate buffered saline (pH 7.4) which elicited no r[…] itself. Putative tachykinin antagonists were administered either (i.v.) 20 min prior to onset of aerosol exposure or orally 1 hour prior to onset (to guinea pigs after an overnight fast).
Table 6 illustrates the effects of the compounds of Example 3; Example 20A; and Example 5A on r[…] induced by NKA aerosol. […] These effects were dose dependent i.e. the higher the dose of compound, the greater attenuation of NKA-mediated effects.

[3] = tested on: NK1 and NK2 receptors; test: Antagonism of capsaicin aerosol induced respiratory effects in conscious guinea pigs; assay type: in vivo, guinea pig; settings: for SRE NUMBER (coughs/gasps): 19 min capsaicin exposure; for SRE NUMBER (coughs/gasps) / DYSPNEA ONSET / MAXIMUM PRESSURE INCREASE: mean and SEM; for DYSPNEA INCIDENCE / DYSPNEA ONSET / MAXIMUM PRESSURE INCREASE: capsaicin aerosol 0.001%
Description: as §1, §2, §3
Capsaicin aerosol is known to promote release of the tachykinins SP and NKA from sensory nerves in the airways of guinea pigs which may then act upon NK1 and NK2 receptors, respectively to elicit r[…]. The ability of the compounds of Example 3A; and Example 20A to attenuate capsaicin-induced r[…], shown in Table 7a, is inferred from their ability to reduce incidence of dyspnea, prolong the onset of the response and reduce the number of coughs/gasps which occur during aerosol exposure.

[4] = target: T1, NK1 receptor; test: Antagonism of iodinated tachykinin (125I-substance P) binding to NK1 receptor in guinea pig lungs; set-up: tissue Keystone Biologicals, Cleveland, Ohio; host or cells: guinea pig lung membranes; settings: guinea pig lungs; mean of several experiments; read-out: NK-1 IC50
Description: ANTAGONISM OF IODINATED TACHYKININ BINDING TO NK1 AND NK2 RECEPTORS BY PUTATIVE ANTAGONISTS
The NK1 receptor affinity of proposed tachykinin antagonists was evaluated in guinea pig lungs (Keystone Biologicals, Cleveland, Ohio), affinity for the NK2 receptor evaluated in HSKR-1 cells (which are mouse 3T3 fibroblasts expressing the human jejunal NK2 receptor) and NK-3 receptor affinity was evaluated in freshly collected guinea pig cerebral cortex. Tissues or cells were homogenized with a Polytron in 15 volumes of 50 mM Tris-HCl buffer (pH 7.4, 4° C.) and centrifuged. The pellet was resuspended in Tris-HCl buffer and was centrifuged; the pellet was washed twice by resuspension. The final pellet was resuspended at a concentration of 40 mg/ml for tissues (guinea pig lung and cerebral cortex) and 20 mg/ml for cells in incubation buffer and remained at room temperature for at least 15 min prior to use. Receptor binding was initiated by addition of 250 ul membrane preparation in duplicate to 0.1 nM of the following radioligands: ^125 I-Bolton Hunter Lys-3 labeled substance P; ^125 iodohistidyl-1-neurokinin A; and ^125 I-Bolton Hunter labeled Lys-4 eledoisin in a final volume of 500 ul of buffer containing 50 mM Tris-HCl (pH 7.4 at room temperature), 0.1% bovine serum albumin, 2 mM MnCl2, 40 ug/ml bacitracin, 4 µg/ml leupeptin and chymostatin, 1 μM thiorphan and various doses of the putative tachykinin antagonists. Incubations were performed at room temperature for 90 min (NK1 receptor assays) or 2 hr (NK2 and NK3 receptor assays); binding was terminated by addition of 50 mM Tris-HCl buffer (pH 7.4, 4° C.) and filtration under vacuum through GF/B filters presoaked with 0.1% polyethyleneimine (NK1 receptor assays) or 0.5% bovine serum albumin (NK2 and NK3 receptor assays). Filter bound radioactivity was quantitated in a gamma counter. Nonspecific binding was defined as binding in the presence of 1 μM substance P, neurokinin A, or eledoisin. Specific binding was calculated by subtracting nonspecific binding from total binding. Competition of iodinated SP, NKA, or eledoisin binding by test compounds or standards was expressed as a percentage of this maximum competition. IC50 values (concentration required to inhibit 50% of receptor binding) were generated for each of the test compounds by nonlinear regression using an iterative curve fitting program (GraphPAD Inplot, San Diego, Calif.).

COc1cc(C(=O)N2CCC(CCN3CCC(C(N)=O)(c4ccccc4)CC3)(c3ccc(Cl)c(Cl)c3)C2)cc(OC)c1OC (single isomer, unassigned; (+)) [Example 20A, (+)-1-[2-[3-(3,4-dichloro-phenyl)-1-(3,4,-trimethoxy-benzoyl)-pyrrolidin-3-yl]-ethyl]-4-phenyl-piperidine-4-carboxylic acid amide hydrochloride]
relative potency as NK-1 receptor antagonists (in words) [1]: equipotent | DYSPNEA INCIDENCE ([2]; 1 mg/kg): 100% | DYSPNEA ONSET ([2]; 1 mg/kg): 451 ± 30 s | DYSPNEA INCIDENCE ([2]; 5 mg/kg): 90% | DYSPNEA ONSET ([2]; 5 mg/kg): 706 ± 82 s | DYSPNEA INCIDENCE ([2]; 10 mg/kg): 70% | DYSPNEA ONSET ([2]; 10 mg/kg): 829 ± 105 s | SRE NUMBER (coughs/gasps) ([3]; 1 mg/kg intravenous): 9.9 ± 2.7 | DYSPNEA INCIDENCE ([3]; 1 mg/kg intravenous): 77.8% | DYSPNEA ONSET ([3]; 1 mg/kg intravenous): 331 ± 22 s | MAXIMUM PRESSURE INCREASE ([3]; 1 mg/kg intravenous): 1.0 ± 0.1 mmH2 O | SRE NUMBER (coughs/gasps) ([3]; 2.5 mg/kg intravenous): 8.3 ± 1.6 | DYSPNEA INCIDENCE ([3]; 2.5 mg/kg intravenous): 100% | DYSPNEA ONSET ([3]; 2.5 mg/kg intravenous): 426 ± 57 s | MAXIMUM PRESSURE INCREASE ([3]; 2.5 mg/kg intravenous): 0.6 ± 0.1 mmH2 O | SRE NUMBER (coughs/gasps) ([3]; 5 mg/kg intravenous): 4.4 ± 1.9 | DYSPNEA INCIDENCE ([3]; 5 mg/kg intravenous): 44.4% | DYSPNEA ONSET ([3]; 5 mg/kg intravenous): 597 ± 186 s | MAXIMUM PRESSURE INCREASE ([3]; 5 mg/kg intravenous): 0.8 ± 0.06 mmH2 O | SRE NUMBER (coughs/gasps) ([3]; 10 mg/kg intravenous): 3.3 ± 1.1 | DYSPNEA INCIDENCE ([3]; 10 mg/kg intravenous): 55.6% | DYSPNEA ONSET ([3]; 10 mg/kg intravenous): 592 ± 71 s | MAXIMUM PRESSURE INCREASE ([3]; 10 mg/kg intravenous): 0.8 ± 0.1 mmH2 O | inhibition of endogenous tachykinins released by capsaicin aerosol (in words) ([3]; guinea pig, in vivo): inhibit the endogenous tachykinins released by capsaicin aerosol

COc1ccccc1C(=O)N1CCC(CCN2CCC(C(N)=O)(c3ccccc3)CC2)(c2ccc(Cl)c(Cl)c2)C1 (stereo not drawn) [Example 13, 1-[2-[3-(3,4-dichloro-phenyl)-1-(2-methoxy-benzoyl)-pyrrolidin-3-yl]-ethyl]-4-phenyl-piperidine-4-carboxylic acid amide]
IC50 [4]: 0.074 µM

NC(=O)C1(c2ccccc2)CCN(CCC2(c3ccc(Cl)c(Cl)c3)CCN(C(=O)c3ccccc3)C2)CC1 (stereo not drawn) [Example 1, 1-[2-[3-(3,4-dichloro-phenyl)-1-benzoyl-pyrrolidin-3-yl]-ethyl]-4-phenyl-piperidine-4-carboxylic acid amide]
IC50 [4]: 0.27 µM

COc1ccccc1CC(=O)N1CCC(CCN2CCC(C(N)=O)(c3ccccc3)CC2)(c2ccc(Cl)c(Cl)c2)C1 (stereo not drawn) [Example 4, 1-(2-[3-(3,4-dichloro-phenyl)-1-[2-(2-methoxy-phenyl)-acetyl]-pyrrolidin-3-yl]-ethyl)-4-phenyl-piperidine-4-carboxylic acid amide]
IC50 [4]: 0.048 µM
